Laboratory results: article PMC6826021 (Disease Models & Mechanisms, 2019)

How the values were obtained:
Etx = settings: cited from earlier work
[1] = tested on: Ca2+ influx in Etx-treated MDCK cells; format: cell-based, canine
Etx-treated MDCK cells [2] = format: cell-based, canine
[3] = target: Etx monomer binding to MDCK cells (Clostridium perfringens, UniProt Q02307); format: cell-based
[4] = target: Etx heptamer (oligomerization) (Clostridium perfringens, UniProt Q02307); format: cell-based
Etx heptamer (oligomerization), sequence (Q02307 46-306 limits assumed): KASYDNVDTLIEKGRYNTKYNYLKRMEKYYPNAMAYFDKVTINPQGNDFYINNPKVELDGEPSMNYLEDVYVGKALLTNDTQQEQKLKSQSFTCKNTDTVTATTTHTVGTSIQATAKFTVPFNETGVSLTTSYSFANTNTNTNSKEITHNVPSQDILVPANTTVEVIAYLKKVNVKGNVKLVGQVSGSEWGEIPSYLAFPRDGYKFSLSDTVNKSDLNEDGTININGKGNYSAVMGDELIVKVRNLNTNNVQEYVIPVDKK

[5] = target: Etx pore formation in DPPC/cholesterol liposomes (Clostridium perfringens, UniProt Q02307); format: biochemical
Etx pore formation in DPPC/cholesterol liposomes, sequence (Q02307 46-306 limits assumed): as above

Etx-Etx monomers = Etx-Etx monomers (Clostridium perfringens, UniProt Q02307); format: binding
Etx-Etx monomers, sequence (Q02307 46-306 limits assumed): as above

Etx-treated MDCK cells [6] = format: cell-based, canine; remark: listed apart in the source
[7] = tested on: mitochondrial membrane potential in Etx-treated MDCK cells; format: cell-based, canine
[8] = tested on: ROS in Etx-treated MDCK cells; format: cell-based, canine
[9] = tested on: HMGB1 translocation in Etx-treated MDCK cells; format: cell-based, canine
[10] = tested on: Etx-challenged C57BL/6 mice; settings: mouse, in vivo
C57BL/6 mice = settings: mouse, in vivo

Etx monomer binding to MDCK cells, sequence (Q02307 46-306 limits assumed): as above

In the case of `c1ccc2c(c1)Cc1cccc3noc-2c13` [6H-anthra[1,9-cd]isoxazol], the “inhibition of Etx binding or oligomerization” value (Etx) is given as “none of them could inhibit”.
With `O=C(O)CN(CCOCCOCCN(CC(=O)O)CC(=O)O)CC(=O)O` [EGTA, reference compound] the “Ca2+ influx, Fluo-4 AM intensity by FACS” value [1] was “blocked the Etx-invoked influx”.
With `CCCOC1O[C@H](CO)[C@@H](O)[C@H](O)[C@H]1O` (stereo partly drawn) [Glycoside-2] the “protection of Etx-treated MDCK cells” value (Etx-treated MDCK cells [2]) was “concentration-dependent protection” and the “survival of Etx-challenged MDCK cells compared to Etx” value (shortened to “survival … compared to Etx”) (Etx-treated MDCK cells [2]) was “greater than 50%”.
With `CCCCOC1O[C@H](CO)[C@@H](O)[C@H](O)[C@H]1O` (stereo partly drawn) [Glycoside-4] the “cell survival upon Etx challenge (MTT), pre- and post-treatment” value (Etx-treated MDCK cells [2]) was “increase in cell survival”, the “protection of Etx-treated MDCK cells” value (Etx-treated MDCK cells [2]) was “highest survival efficiency” and the “survival … compared to Etx” value (Etx-treated MDCK cells [2]) was “greater than 50%”. The “effect on binding of Etx monomer to the cell membrane” value [3] was “no effect”, the “effect on Etx heptamer (oligomer) intensity” value [4] was “substantial decrease in heptamer intensity” and the “effect on pore formation in Etx-treated liposomes” value [5] was “tearings disappeared”. For the same molecule, the “Etx (protein-protein) interaction in SPR” value (Etx-Etx monomers) was “no Etx (protein-protein) interaction could be seen”, the “Ca2+ entry, Fluo-4 AM fluorescence microscopy” value [1] was “complete reduction in Ca^2+ entry” and the “Ca2+ influx, Fluo-4 AM intensity by FACS” value [1] was “drastic reduction of Fluo-4 AM intensity”. For the same molecule, the “PI+ cells” value (Etx-treated MDCK cells [6]) was “drastic reduction in PI^+ cells”, the “annexin V+/PI+ cells (phosphatidylserine exposure)” value (Etx-treated MDCK cells [6]) was “absence of annexin V^+/PI^+ cells” and the “mitochondrial membrane potential (ΨΔm), JC-1” value [7] was “could stabilize ΨΔm”. The “ROS levels, DCFDA” value [8] was “decreased levels of ROS”, the HMGB1 localization [9] was “largely remained in the nucleus” and the mice protected [10] was 60%. For the same molecule, the “mice with improved liver (H&E)” value [10] was 60%, the “mice with protected brain structures (H&E)” value [10] was 60% and the death rate ([10]; ip, 50 mg/kg) was 40%. The “mortality or clinical signs (seizures, convulsions and depression)” value (C57BL/6 mice) was “No mortality or clinical signs”.
With `CCCCCCOC1O[C@H](CO)[C@@H](O)[C@H](O)[C@H]1O` (stereo partly drawn) [Glycoside-6] the “protection of Etx-treated MDCK cells” value (Etx-treated MDCK cells [2]) was “concentration-dependent protection” and the “survival … compared to Etx” value (Etx-treated MDCK cells [2]) was “greater than 50%”.
In the case of `c1ccc2nc3occc3cc2c1` [furo[2,3-b]quinoline], the “inhibition of Etx binding or oligomerization” value (Etx) is given as “none of them could inhibit”.
With `C[C@H](CCC(=O)O)C[C@H](C)C[C@H](C)C(=O)/C=C(\O)[C@H](C)C[C@H](C)C/C=C/[C@@H](C)[C@@H](O)[C@@H](C)[C@@H](O)C[C@@H]1CC[C@@](C)([C@H]2CC[C@@](C)([C@@H](C)O)O2)O1` [ionomycin, reference compound] the “Ca2+ influx, Fluo-4 AM intensity by FACS” value [1] was “Clear intensity shift”.
